Experimental data: patent US20230399312A1, “SUBSTITUTED PYRIMIDINES AND METHODS OF USE” (THERAVANCE BIOPHARMA R&D IP, LLC, priority 2020, published 2023)

How the values were obtained:
[1] = target: T1, recombinant human ALK5 (TGF-βR1) protein (Homo sapiens, UniProt P36897); assay: Biochemical ALK5 (TGF-βR1) assay to measure pKi (LANCE Ultra ULight kinase assay); conditions: apparent pKi, converted from pIC50 by Cheng-Prusoff
T1 construct: purchased Life Technologies PR9075A
T1 sequence (P36897 34-503): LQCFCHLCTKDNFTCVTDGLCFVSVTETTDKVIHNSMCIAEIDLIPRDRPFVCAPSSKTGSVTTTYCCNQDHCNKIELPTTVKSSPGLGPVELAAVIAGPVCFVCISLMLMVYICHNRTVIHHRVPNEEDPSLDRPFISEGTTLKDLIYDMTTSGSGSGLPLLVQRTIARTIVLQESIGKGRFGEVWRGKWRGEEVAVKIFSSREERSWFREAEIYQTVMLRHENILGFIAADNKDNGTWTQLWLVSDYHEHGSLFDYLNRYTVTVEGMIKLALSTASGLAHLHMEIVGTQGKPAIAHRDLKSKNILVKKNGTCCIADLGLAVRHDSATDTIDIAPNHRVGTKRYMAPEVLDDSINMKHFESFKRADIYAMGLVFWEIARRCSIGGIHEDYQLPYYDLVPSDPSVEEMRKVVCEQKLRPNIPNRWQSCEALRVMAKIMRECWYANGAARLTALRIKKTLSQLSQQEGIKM
Method in brief: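 Cmpd + enzyme, 60 min RT; ATP from 125 μM (5×) stock, 60 min 37 °C; stop 12 mM EDTA/Eu anti-pThr1342 Topo2α Ab (pH 7.0 buffer); TR-FRET 665 nm. DMSO = max, SD-208 = min signal. 4-PL pIC50 → pKi (Cheng-Prusoff).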

[2] = system: TGF-β-stimulated SMAD3 phosphorylation in BEAS-2B cells; assay: Cellular ALK5 potency assay, inhibition of TGF-β stimulated pSMAD3 formation in BEAS-2B cells; format: cell-based; conditions: Homo sapiens, pSMAD3, TGF-β 10 ng/mL, read-out: BEAS2B pIC50 (converted)
Method in brief: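 Reported as pIC50, potency reflects dose-dependent loss of AlphaLISA pSMAD3 signal versus TGF-β-stimulated, compound-free BEAS-2B cells. Compound was applied for 1 h in BSA-containing HBSS buffer before a 30-min challenge with TGF-β at 10 ng/mL final.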

| SMILES | Ki [1] [nM] | IC50 [2] [nM] |
| --- | --- | --- |
| Cc1cccc(-c2nccc(Nc3ccnc(Nc4ccc(CN5CCC(C(=O)O[C@H]6CCN(C)C6)CC5)cc4)n3)n2)n1 [Compound 297, [(3S)-1-methylpyrrolidin-3-yl] 1-[[4-[[4-[[2-(6-methyl-2-pyridyl)pyrimidin-4-yl]amino]pyrimidin-2-yl]amino]phenyl]methyl] piperidine-4-carboxylate] | 0.0398 to 0.316 | 200 to 1260 |
| Cc1cccc(-c2nccc(Nc3ccnc(Nc4cccc(NC(=O)N5CCNCC5)c4)n3)n2)n1 [Compound 298, N-[3-[[4-[[2-(6-methyl-2-pyridyl)pyrimidin-4-yl]amino]pyrimidin-2-yl]amino]phenyl]piperazine-1-carboxamide] | 0.0398 to 0.316 | 25.1 to 158 |
| Cc1cccc(-c2nccc(Nc3ccnc(Nc4cccc(NC(=O)C5(O)CNC5)c4)n3)n2)n1 [Compound 299, 3-hydroxy-N-[3-[[4-[[2-(6-methyl-2-pyridyl)pyrimidin-4-yl]amino]pyrimidin-2-yl]amino]phenyl]azetidine-3-carboxamide] | 0.0398 to 0.316 | 25.1 to 158 |
| Cc1cccc(-c2nccc(Nc3ccnc(Nc4ccc(N5CCOCC5)c(F)c4)n3)n2)n1 [Compound 300, N2-(3-fluoro-4-morpholino-phenyl)-N4-[2-(6-methyl-2-pyridyl)pyrimidin-4-yl]pyrimidine-2,4-diamine] | 0.0398 to 0.316 | 25.1 to 158 |
| Cc1cccc(-c2nccc(Nc3ccnc(Nc4ccc(CN5CCN(CCO)CC5)cc4)n3)n2)n1 [Compound 301, 2-[4-[[4-[[4-[[2-(6-methyl-2-pyridyl)pyrimidin-4-yl]amino]pyrimidin-2-yl]amino]phenyl]methyl]piperazin-1-yl]ethanol] | 0.0398 to 0.316 | 25.1 to 158 |
| Cc1cccc(-c2nccc(Nc3ccnc(Nc4ccc(N5CCC(CN)CC5)cc4)n3)n2)n1 [Compound 302, N2-[4-[4-(aminomethyl)-1-piperidyl]phenyl]-N4-[2-(6-methyl-2-pyridyl)pyrimidin-4-yl]pyrimidine-2,4-diamine] | 0.0398 to 0.316 | 25.1 to 158 |
| Cc1cccc(-c2nccc(Nc3ccnc(Nc4ccc(NS(=O)(=O)N5CCN(C)CC5)cc4)n3)n2)n1 [Compound 303, 4-methyl-N-[4-[[4-[[2-(6-methyl-2-pyridyl)pyrimidin-4-yl]amino]pyrimidin-2-yl]amino]phenyl]piperazine-1-sulfonamide] | 0.398 to 3.16 | 25.1 to 158 |
| CCOC(=O)Cc1ccc(Nc2nccc(Nc3ccnc(-c4cccc(C)n4)n3)n2)cc1 [Compound 304, ethyl 2-[4-[[4-[[2-(6-methyl-2-pyridyl)pyrimidin-4-yl]amino]pyrimidin-2-yl]amino]phenyl]acetate] | 0.398 to 3.16 | 25.1 to 158 |
| Cc1cccc(-c2nccc(Nc3ccnc(Nc4ccc(CN5CCN(C)CC5)cc4)n3)n2)n1 [Compound 305, N2-[4-[(4-methylpiperazin-1-yl)methyl]phenyl]-N4-[2-(6-methyl-2-pyridyl)pyrimidin-4-yl]pyrimidine-2,4-diamine] | 0.0398 to 0.316 | 25.1 to 158 |
| Cc1cccc(-c2nccc(Nc3ccnc(Nc4cccc(S(=O)(=O)N5CCNCC5)c4)n3)n2)n1 [Compound 306, N4-[2-(6-methyl-2-pyridyl)pyrimidin-4-yl]-N2-(3-piperazin-1-ylsulfonylphenyl)pyrimidine-2,4-diamine] | 3.98 to 31.6 | 25.1 to 158 |
| COC(=O)[C@@H]1CN(c2ccc(Nc3nccc(Nc4ccnc(-c5cccc(C)n5)n4)n3)cc2)CCN1 [Compound 307, methyl (2S)-4-[4-[[4-[[2-(6-methyl-2-pyridyl)pyrimidin-4-yl]amino]pyrimidin-2-yl]amino]phenyl]piperazine-2-carboxylate] | 0.0398 to 0.316 | 25.1 to 158 |
| Cc1cccc(-c2nccc(Nc3ccnc(Nc4cccc(C(=O)O[C@H]5CCN(C)C5)c4)n3)n2)n1 [Compound 308, [(3S)-1-methylpyrrolidin-3-yl] 3-[[4-[[2-(6-methyl-2-pyridyl)pyrimidin-4-yl]amino]pyrimidin-2-yl]amino]benzoate] | 0.398 to 3.16 | 200 to 1260 |
| Cc1cccc(-c2nccc(Nc3ccnc(Nc4ccc(NCC5(CO)CNC5)cc4)n3)n2)n1 [Compound 310, [3-[[4-[[4-[[2-(6-methyl-2-pyridyl)pyrimidin-4-yl]amino]pyrimidin-2-yl]amino]anilino]methyl]azetidin-3-yl] methanol] | 0.398 to 3.16 | 25.1 to 158 |
| Cc1cccc(-c2nccc(Nc3ccnc(Nc4ccc(C)c(CN5CCN(C)CC5)c4)n3)n2)n1 [Compound 311, N2-[4-methyl-3-[(4-methylpiperazin-1-yl)methyl]phenyl]-N4-[2-(6-methyl-2-pyridyl)pyrimidin-4-yl]pyrimidine-2,4-diamine] | 0.0398 to 0.316 | 25.1 to 158 |
| COC(=O)c1cc(Nc2nccc(Nc3ccnc(-c4cccc(C)n4)n3)n2)ccc1N1CCNCC1 [Compound 312, methyl 5-[[4-[[2-(6-methyl-2-pyridyl)pyrimidin-4-yl]amino]pyrimidin-2-yl]amino]-2-piperazin-1-yl-benzoate] | 0.0398 to 0.316 | 25.1 to 158 |
| Cc1cccc(-c2nccc(Nc3ccnc(Nc4ccc(CN5CCC(C(=O)O[C@@H]6CCNC6)CC5)cc4)n3)n2)n1 [Compound 313, [(3R)-pyrrolidin-3-yl] 1-[[4-[[4-[[2-(6-methyl-2-pyridyl)pyrimidin-4-yl]amino]pyrimidin-2-yl]amino]phenyl]methyl] piperidine-4-carboxylate] | 0.0398 to 0.316 | 25.1 to 158 |
| Fc1cc(F)c(-c2nccc(Nc3ccnc(Nc4ccc(N5CCC(N6CCCC6)CC5)cc4)n3)n2)cc1Cl [Compound 314, N4-[2-(5-chloro-2,4-difluoro-phenyl)pyrimidin-4-yl]-N2-[4-(4-pyrrolidin-1-yl-1-piperidyl)phenyl]pyrimidine-2,4-diamine] | 0.0398 to 0.316 | 25.1 to 158 |
| Cc1cccc(-c2nccc(Nc3ccnc(Nc4cccc(N)c4)n3)n2)n1 [Compound 315, N2-(3-aminophenyl)-N4-[2-(6-methyl-2-pyridyl)pyrimidin-4-yl]pyrimidine-2,4-diamine] | 0.0398 to 0.316 | ≤ 20 |
| CC(=O)Nc1ccc(Nc2nccc(Nc3ccnc(-c4cccc(C)n4)n3)n2)cc1 [Compound 316, N-[4-[[4-[[2-(6-methyl-2-pyridyl)pyrimidin-4-yl]amino]pyrimidin-2-yl]amino]phenyl]acetamide] | 0.398 to 3.16 | 25.1 to 158 |
| Cc1cccc(-c2nccc(Nc3ccnc(Nc4ccc(C(=O)N5CCN(C(C)C)CC5)cc4)n3)n2)n1 [Compound 317, (4-isopropylpiperazin-1-yl)-[4-[[4-[[2-(6-methyl-2-pyridyl)pyrimidin-4-yl]amino]pyrimidin-2-yl]amino]phenyl]methanone] | 0.0398 to 0.316 | 25.1 to 158 |
| Cc1cccc(-c2nccc(Nc3ccnc(Nc4ccc(CN5CCCC(C(=O)OCC6CNC6)C5)cc4)n3)n2)n1 (stereo not shown) [Compound 318, azetidin-3-ylmethyl 1-[[4-[[4-[[2-(6-methyl-2-pyridyl)pyrimidin-4-yl]amino]pyrimidin-2-yl]amino]phenyl]methyl] piperidine-3-carboxylate] | 0.0398 to 0.316 | 25.1 to 158 |
| Cc1cccc(-c2nccc(Nc3ccnc(Nc4ccc(CN5CCCC(C(=O)NC6CCNCC6)C5)cc4)n3)n2)n1 (stereo not shown) [Compound 320, 1-[[4-[[4-[[2-(6-methyl-2-pyridyl)pyrimidin-4-yl]amino]pyrimidin-2-yl]amino]phenyl]methyl]-N-(4-piperidyl)piperidine-3-carboxamide] | 0.0398 to 0.316 | 25.1 to 158 |
| Cc1cccc(-c2nccc(Nc3ccnc(Nc4ccc(NCCO)cc4)n3)n2)n1 [Compound 321, 2-[4-[[4-[[2-(6-methyl-2-pyridyl)pyrimidin-4-yl]amino]pyrimidin-2-yl]amino]anilino]ethanol] | 0.398 to 3.16 | 25.1 to 158 |
| Cc1cccc(-c2nccc(Nc3ccnc(Nc4cccc(N5CCNCC5)c4)n3)n2)n1 [Compound 322, N4-[2-(6-methyl-2-pyridyl)pyrimidin-4-yl]-N2-(3-piperazin-1-ylphenyl)pyrimidine-2,4-diamine] | 0.0398 to 0.316 | 25.1 to 158 |
| Cc1cccc(-c2nccc(Nc3ccnc(Nc4nc(C(=O)O[C@H]5CCN(C)C5)cs4)n3)n2)n1 [Compound 323, [(3S)-1-methylpyrrolidin-3-yl] 2-[[4-[[2-(6-methyl-2-pyridyl)pyrimidin-4-yl]amino]pyrimidin-2-yl]amino]thiazole-4-carboxylate] | 0.398 to 3.16 | 25.1 to 158 |
| Cc1cccc(-c2nccc(Nc3ccnc(Nc4ccc(N5CCC(N)CC5)cc4)n3)n2)n1 [Compound 324, N2-[4-(4-amino-1-piperidyl)phenyl]-N4-[2-(6-methyl-2-pyridyl)pyrimidin-4-yl]pyrimidine-2,4-diamine] | 0.0398 to 0.316 | 25.1 to 158 |
